The source of these data is patent publication US7820078B2, “Layer configuration with improved stability to sunlight exposure” (Agfa Graphics, N.V., priority 2007, dated 2010).

The conditions of data set [1]: cited from earlier work.

Consider `CC(C)N` [isopropylamine], for which the pKa in data set [1] is on record as 10.63.

In turn, `Oc1ccc2ccccc2c1O` displayed a melting point of 101 to 103 °C.

Take `c1ccc2cnccc2c1` [isoquinoline]: the pKa in data set [1] is on record as 5.2.

Consider `c1cn[nH]c1` [pyrazole], for which the pKa in data set [1] is listed as 2.53.

For the molecule `Sc1nnnn1-c1ccccc1` [1-phenyl-5-mercaptotetrazole], the pKa in data set [1] is reported as 2.30.

As to `Cc1nc2ccccc2[nH]1` [2-methylbenzimidazole], the pKa in data set [1] was 6.96.

The term pKa denotes the negative logarithm of the acid dissociation constant. The term melting point denotes the temperature of the solid-liquid transition.
